Test results published in patent US12281304B2, “Compositions and methods for treating and preventing muscular disorders and dystrophies, steroid side effects, and inflammation” (Children's National Medical Center, priority 2018, dated 2025).

System: miRNAs in diaphragm muscle of mdx mice
Test: TaqMan low-density array (TLDA) miRNA profiling of diaphragm, discovery set (prophylactic mdx trial)
Assay type: in vivo, mouse
Excerpt: Archival muscle samples (diaphragm) from two separate preclinical studies were obtained, with each trial showing a significant benefit from both prednisolone and vamorolone drug treatments (23). Prednisolone was used because it is the active form of prednisone, the current DMD standard of care. The first, “discovery set” of diaphragm muscles was from a prophylactic trial design where 2-week old (postnatal day 15) mdx or wild type control mice received oral dosing for 6 weeks with vehicle (cherry syrup), prednisolone (5 mg/kg), or vamorolone (15 mg/kg) as previously reported (23). The second, “validation set” of diaphragm muscles was from an extended trial in older mice where mdx or wild type mice were subjected to treadmill running to unmask mild phenotypes. Mice in this validation set were treated with either vehicle, prednisolone (5 mg/kg) or vamorolone (45 mg/kg) for four months beginning at two months of age (23). At the endpoint of each trial, diaphragm muscles were harvested and frozen in liquid nitrogen-cooled isopentane.
We extracted total RNA from 5 diaphragm muscles per treatment group in the discovery set of samples from 8-week old mice. RNA was extracted using a modified TRIzol protocol with isopropanol precipitation at −20° C. overnight. This RNA was reverse transcribed to cDNA using a High Capacity cDNA Reverse Transcription Kit with RNase Inhibitor (ThermoFisher; Carlsbad, Calif.), with miRNA-specific Megaplex RT Primers, Rodent Pools Set version 3.0 (ThermoFisher; Carlsbad, Calif.). Levels of each of the miRNAs were profiled in the discovery set using TAQMAN Array Rodent MiRNA A+B Cards Set v3.0 (ThermoFisher; Carlsbad, Calif.).
In the discovery set experiments, levels of each miRNA were quantified in TaqMan low-density arrays using ThermoFisher Cloud software with the Relative Quantification Application (ThermoFisher; Carlsbad, Calif.) tool. Data was analyzed by ANOVA with post-hoc comparison of each group to the mdx vehicle-treated group. […] A P-value of P≤0.05 was set as the significance threshold, without adjustment for multiple comparisons. To reduce false-positive discovery in this setting, an evidence-based approach was used to identify efficacy associated miRNAs where 1) results from the multiple groups were cross-referenced, and 2) all candidate miRNAs identified in this discovery set were then assayed in a separate validation set of mice. For the validation set experiments, levels of each individual miRNA were assayed in samples from a second, independent preclinical trial in adult mdx mice. Data from individual TaqMan Assays was quantified using QuantStudio Real-Time PCR version 1.3 software (Applied Biosystems; Foster City, Calif.). The levels of all miRNAs were normalized to the geometric mean of multiple control genes (60, 70). Comparison of groups was made by ANOVA with Holm-Sidak post-hoc test comparing each group to mdx vehicle.
To visualize behavior of miRNAs within individual mice for each group, heat map images were generated. Heat maps were generated using Rq values of TLDA array data exported from the Relative Quantification Application of the ThermoFisher Cloud software (ThermoFisher; Carlsbad, Calif.) tool. Heat maps of miRNA expression were produced using Hierarchical Clustering Explorer Version 3.5 (at www.cs.umd.edu/hcil/multi-cluster/) produced by the Human Computer Interaction Laboratory (University of Maryland; College Park, Md.).
To examine miRNA expression TaqMan low density qPCR array cards were used to profile approximately 750 miRNAs within diaphragm muscle from a discovery set of mice. Samples for this experiment came from a trial that utilized a prophylactic approach (23). Briefly, mdx mice undergo a stage of peak severity characterized by widespread inflammation and necrosis from approximately 3-8 weeks of age, followed by a recovery stage where mice show milder phenotypes (25). […]

[1] = discovery set diaphragm muscle, mdx mice, Pred 5 mg/kg, Vam 15 mg/kg
[2] = mdx diaphragm, vs untreated mdx, Pred 5 mg/kg, Vam 15 mg/kg

Question: Which results are given for C[C@@H]1C[C@H]2[C@@H]3CCC4=CC(=O)C=C[C@]4(C)C3=CC[C@]2(C)[C@@]1(O)C(=O)CO [vamorolone]?
Answer: miRNA 142-3p % expression in comparison to mdx vehicle [1]: 65 ± 20 %; miRNA 142-5p % expression in comparison to mdx vehicle [1]: 61 ± 23 %; miRNA 146a % expression in comparison to mdx vehicle [1]: 52 ± 12 %; miRNA 301a % expression in comparison to mdx vehicle [1]: 77 ± 12 %; miRNA 324-3p % expression in comparison to mdx vehicle [1]: 75 ± 13 %; miRNA 455-3p % expression in comparison to mdx vehicle [1]: 61 ± 14 %; miRNA 455-5p % expression in comparison to mdx vehicle [1]: 64 ± 15 %; miRNA 497 % expression in comparison to mdx vehicle [1]: 65 ± 11 %; miRNA 652 % expression in comparison to mdx vehicle [1]: 64 ± 18 %; number of miRNAs significantly changed in dystrophic muscle (mdx diaphragm, 8-week-old mice, oral dosing 6 weeks, prednisolone 5 mg/kg, vamorolone 15 mg/kg, versus untreated mdx, P≤0.05): 41; number of miRNAs significantly increased by treatment (mdx diaphragm, discovery set, prednisolone 5 mg/kg, vamorolone 15 mg/kg, P≤0.05): none of the miRNAs queried in the TLDA cards were significantly increased; expression of the nine efficacy-associated miRNAs elevated in dystrophy (mdx diaphragm, discovery set, versus mdx vehicle): returned towards healthy wild type levels; Rq hsa-let-7i#-002172 [2]: 0.939; Rq hsa-miR-30e-3p-000422 [2]: 0.849; Rq hsa-miR-22#-002301 [2]: 0.78; Rq hsa-miR-140-3p-002234 [2]: 0.903; Rq hsa-miR-143-000466 [2]: 1.29; Rq hsa-miR-154#-000478 [2]: 0.689; Rq hsa-miR-190b-002263 [2]: 0.822; Rq hsa-miR-200c-000505 [2]: 0.453; Rq hsa-miR-206-000510 [2]: 0.983; Rq hsa-miR-213-000516 [2]: 0.839; Rq hsa-miR-214#-002293 [2]: 0.889; Rq hsa-miR-214-000517 [2]: 0.994; Rq hsa-miR-376a#-001287 [2]: 0.845; Rq hsa-miR-455-001280 [2]: 0.637; Rq hsa-miR-744#-002325 [2]: 0.816; Rq mmu-let-7e-002406 [2]: 0.665; Rq mmu-let-7a-000377 [2]: 0.667; Rq mmu-let-7b-000378 [2]: 0.754; Rq mmu-let-7c-1#-002479 [2]: 1.038; Rq mmu-let-7c-000379 [2]: 0.691; Rq mmu-let-7i-002221 [2]: 0.777; Rq mmu-let-7d#-001178 [2]: 0.61; Rq mmu-let-7d-002283 [2]: 0.789; Rq mmu-miR-1-002222 [2]: 0.897; Rq mmu-miR-15a-000389 [2]: 0.719; Rq mmu-miR-16-000391 [2]: 0.781; Rq mmu-miR-18a-002422 [2]: 1.288; Rq mmu-miR-19a-000395 [2]: 0.886; Rq mmu-miR-20a#-002491 [2]: 0.825; Rq mmu-miR-21#-002493 [2]: 0.647; Rq mmu-miR-21-000397 [2]: 0.677; Rq mmu-miR-23b-000400 [2]: 0.675; Rq mmu-miR-25-000403 [2]: 0.867; Rq mmu-miR-26a-000405 [2]: 0.766; Rq mmu-miR-27b-000409 [2]: 0.82; Rq mmu-miR-28-000411 [2]: 0.842; Rq mmu-miR-30e-002223 [2]: 0.847; Rq mmu-miR-30a-000417 [2]: 0.834; Rq mmu-miR-30b-000602 [2]: 0.855; Rq mmu-miR-30c-000419 [2]: 0.818; Rq mmu-miR-31#-002495 [2]: 0.821; Rq mmu-miR-31-000185 [2]: 1.032; Rq mmu-miR-34a-000426 [2]: 0.789; Rq mmu-miR-34b-3p-002618 [2]: 0.798; Rq mmu-miR-34c#-002584 [2]: 0.748; Rq mmu-miR-34c-000428 [2]: 0.811; Rq mmu-miR-99b-000436 [2]: 0.913; Rq mmu-miR-100-000437 [2]: 0.721; Rq mmu-miR-103-000439 [2]: 0.628; Rq mmu-miR-122-002245 [2]: 0.072; Rq mmu-miR-125a-3p-002199 [2]: 0.828; Rq mmu-miR-125b#-002508 [2]: 0.803; Rq mmu-miR-125b-3p-002378 [2]: 0.866; Rq mmu-miR-125b-5p-000449 [2]: 0.682; Rq mmu-miR-126-3p-002228 [2]: 0.809; Rq mmu-miR-126-5p-000451 [2]: 0.812; Rq mmu-miR-127-000452 [2]: 1.107; Rq mmu-miR-128a-002216 [2]: 0.847; Rq mmu-miR-130a-000454 [2]: 0.717; Rq mmu-miR-130b#-002460 [2]: 1.164; Rq mmu-miR-130b-000456 [2]: 0.88; Rq mmu-miR-133a-002246 [2]: 0.996; Rq mmu-miR-134-001186 [2]: 1.353; Rq mmu-miR-136-002511 [2]: 0.942; Rq mmu-miR-138#-002554 [2]: 0.384; Rq mmu-miR-140-001187 [2]: 0.818; Rq mmu-miR-142-3p-000464 [2]: 0.626; Rq mmu-miR-142-5p-002248 [2]: 0.576; Rq mmu-miR-143-002249 [2]: 0.716; Rq mmu-miR-145-002278 [2]: 0.722; Rq mmu-miR-146a-000468 [2]: 0.513; Rq mmu-miR-146b#-002453 [2]: 0.275; Rq mmu-miR-146b-001097 [2]: 0.645; Rq mmu-miR-148a-000470 [2]: 0.496; Rq mmu-miR-148b-000471 [2]: 0.568; Rq mmu-miR-150#-002570 [2]: 0.293; Rq mmu-miR-150-000473 [2]: 0.692; Rq mmu-miR-151-3p-001190 [2]: 0.971; Rq mmu-miR-152-000475 [2]: 0.785; Rq mmu-miR-154-000477 [2]: 0.898; Rq mmu-miR-155-002571 [2]: 0.876; Rq mmu-miR-181a-000480 [2]: 0.773; Rq mmu-miR-181c-000482 [2]: 0.71; Rq mmu-miR-185-002271 [2]: 0.886; Rq mmu-miR-186-002285 [2]: 0.994; Rq mmu-miR-191-002299 [2]: 0.815; Rq mmu-miR-193#-002577 [2]: 0.682; Rq mmu-miR-195-000494 [2]: 0.669; Rq mmu-miR-199a-3p-002304 [2]: 0.722; Rq mmu-miR-199b-001131 [2]: 0.667; Rq mmu-miR-200c-002300 [2]: 0.577; Rq mmu-miR-203-000507 [2]: 0.521; Rq mmu-miR-204-000508 [2]: 0.627; Rq mmu-miR-210-000512 [2]: 0.746; Rq mmu-miR-214-002306 [2]: 0.842
